These results are taken from ChEMBL document CHEMBL3046059, “Syntheses and biological activities of octahydro-1H-cyclopenta[d]pyrimidine derivatives” (2007).

In general, mortality refers to the share of the test organisms that died.

One test relates to Aphis craccivora. As to the kind of experiment: Insecticidal activity against Aphis craccivora (cowpea aphid) assessed as mortality at 62.5 ug/mL measured after 1 day. The format is functional. The following applies: 24 h.
Consider `O=[N+]([O-])/C=C1\NCCN1Cc1ccc(Cl)nc1`, for which the mortality at 62.5 µg/mL turned out to be 94%.

The next test deals with Aphis craccivora. In words: Insecticidal activity against Aphis craccivora (cowpea aphid) assessed as mortality at 500 ug/mL measured after 1 day. The settings on record: 24 h. In kind it is functional.
Consider `CCCCN1CC([N+](=O)[O-])=C2N(CC3CCCC3N2Cc2ccc(Cl)nc2)C1` (stereo not given), for which the mortality at 500 µg/mL stood at 32%.

Take `O=[N+]([O-])/C=C1\NCC2CCCC2N1Cc1cccnc1` (stereo not given): the mortality at 500 µg/mL was 82%.

For the compound `O=[N+]([O-])C1=C2N(CC3CCCC3N2Cc2ccc(Cl)nc2)CN(CCO)C1` (stereo not given), the mortality at 500 µg/mL turned out to be 60%.

For the compound `CC1CCC2CN/C(=C\[N+](=O)[O-])N(Cc3ccc(Cl)nc3)C12` (stereo not given), the mortality at 500 µg/mL amounted to 51%.

On to `CS/C(=N\C#N)NCC1CCCC1NCc1ccc(Cl)nc1` (stereo not given), for which the mortality at 500 µg/mL stood at 34%.

Turning to `CCCN1CC([N+](=O)[O-])=C2N(CC3CCCC3N2Cc2ccc(Cl)nc2)C1` (stereo not given), the mortality at 500 µg/mL was determined as 61%.

With `O=[N+]([O-])/C=C1\NCC2CCCC2N1Cc1ccc(Cl)nc1` (stereo not given), the mortality at 500 µg/mL came to 83%.

`CCN1CC([N+](=O)[O-])=C2N(CC3CCCC3N2Cc2ccc(Cl)nc2)C1` (stereo not given): the mortality at 500 µg/mL stood at 90%.

On to `CN1CC([N+](=O)[O-])=C2N(CC3CCCC3N2Cc2ccc(Cl)nc2)C1` (stereo not given), for which the mortality at 500 µg/mL is 54%.

Consider `O=[N+]([O-])/C=C1\NC2CCCC2CN1Cc1ccc(Cl)nc1` (stereo not given), for which the mortality at 500 µg/mL is under 59%.

In the case of `N#C/N=C1\NCC2CCCC2N1Cc1ccc(Cl)nc1` (stereo not given), the mortality at 500 µg/mL worked out at 38%.

The next test deals with Aphis craccivora. In words: Insecticidal activity against Aphis craccivora (cowpea aphid) assessed as mortality at 450 ug/mL measured after 1 day. The format is functional. The settings on record: 24 h.
On to `CC(C)N1CC([N+](=O)[O-])=C2N(CC3CCCC3N2Cc2ccc(Cl)nc2)C1` (stereo not given), for which the mortality at 450 µg/mL worked out at 88%.

For a further test, the system named is Aphis craccivora. As to the kind of experiment: Insecticidal activity against Aphis craccivora (cowpea aphid) assessed as mortality at 125 ug/mL measured after 1 day. The format is functional. The following applies: 24 h.
Regarding `CC(C)N1CC([N+](=O)[O-])=C2N(CC3CCCC3N2Cc2ccc(Cl)nc2)C1` (stereo not given), the mortality at 125 µg/mL turned out to be 56%.

The test system of another test is Aphis craccivora. In words: Insecticidal activity against Aphis craccivora (cowpea aphid) assessed as mortality at 15.625 ug/mL measured after 1 day. In kind it is functional. The following applies: 24 h.
In the case of `O=[N+]([O-])/C=C1\NCCN1Cc1ccc(Cl)nc1`, the mortality at 15.625 µg/mL stood at 60%.
